Converted amounts (≈) assume the structure as drawn. Where two headings read alike, the source gives them in different places.
Key:
[1] = test system: ATCC strain 43300 Staphylococcus aureus; settings: ATCC strain 43300 (MRSA); cited from earlier work
[2] = test system: ATCC strain 43300 Staphylococcus aureus; settings: for survival (cfu/ml): 24 hours, triplicate platings
Experimental: Additional antibiotic was added every 24 hours. The growth periods tested were 24 (FIG. 5), 48, 72, 96 and 120 hours.
(§1) USP<51> Antimicrobial Effectiveness protocol was used as the template experimental paradigm. […] All concentrations were plated out to the 10^−7 dilutions to ascertain cfu/ml. […] Additional antibiotic was added at the initial concentration every 24 hours.
ATCC strain 43300 Staphylococcus aureus was streaked out for isolations. An isolated colony was chosen, streaked again and incubated. Isolate was chosen and then diluted to a McFarland standard of one. The estimated value was then taken to inoculate tubes containing growth media and 12, 30 or 60 μg/ml methicillin with approximately 10^5 cfu/ml. These tubes were incubated and plated for counting cfu.
Material was calculated on a 10 ml volume. Sterile methicillin was added to each experimental condition to a final concentration of 12, 30 or 60 μg/ml antibiotic. Lactose Broth positive controls both with and without the 12 μg/ml, 30 μg/ml, 60 μg/ml antibiotic were inoculated with MRSA. […] Tubes were set up in singlet, but plated in triplicate, as described below.
All tubes were then inoculated with a dilution of the selected ATCC strain 43300 Staphylococcus aureus clone giving a final level of colony forming units of 1.49×10^5/ml (log=5.17). The tubes were incubated at 25° C. and mixed periodically. Antibiotic was re-inoculated every 24 hours at the initial concentration to maintain pressure on the organism. Plating was done at 24, 48, 72, and 120 hours. Each condition was plated by diluting 1 ml of growth material into 9 ml of MLB diluent broth. […] This mixture was serial diluted down to 10^−7 with 1 ml placed in triplicate in a sterile petri dish at each dilution point. 20 mls of TSA was added to each dilution, swirled and allowed to solidify. All dilutions were placed in a 35° C. incubator for 24 to 72 hours. Bacterial colonies on each plate were counted and the average taken then changed into log format. […] Graphs were recorded as log of 5.2 for TNTC to show comparison among the other data points.
The tubes were spun down at 5000 rpm for 10 minutes. The supernatant was then decanted into 90 mls of Mueller-Hinton broth with 6 μg/ml methicillin. This is for enrichment and the recovery of any MRSA cells that may be present wether healthy or stressed. The pellet had 10 mls Mueller-Hinton broth with 6 μg/ml methicillin added to it to recover any cells that may be present. Both vessels were incubated at 35° C. for 48 hours and plated each 24 hours. Each vessel was plated at 10 dilutions to obtain a 1 cfu detection limit. Since all vessels were at a 1/10 dilution in the enrichment solution plating each vessel in this manner gave us a detection limit of 1 cfu/ml. […] This time point for graphing purposes will be reported as 0 logs.

[3] = test system: ATCC strain 43300 Staphylococcus aureus
Experimental: Additional antibiotic was added every 24 hours. The growth periods tested were 24 (see FIG. 4), 48, 72, 96 and 120 hours.
as §1
ATCC strain 43300 Staphylococcus aureus was streaked out for isolations. An isolated colony was chosen, streaked again and incubated. Isolate was chosen and then diluted to a McFarland standard of one. The estimated value was then taken to inoculate tubes containing growth media and 12, 30 or 60 μg/ml oxacillin with approximately 10^5 cfu/ml. These tubes were incubated and plated for counting cfu. A clone having no observed log reduction in cfu was selected for the rest of the experiment.
Material was calculated on a 10 ml volume. Sterile oxacillin was added to each experimental condition to a final concentration of 12, 30 or 60 μg/ml antibiotic.
All tubes were then inoculated with a dilution of the selected ATCC strain 43300 Staphylococcus aureus clone giving a final level of colony forming units of 3.3×10^5/ml (log=5.52). The tubes were incubated at 25° C. and mixed periodically. Antibiotic was re-inoculated every 24 hours at the initial concentration to maintain pressure on the organism. Plating was done at 24, 48, 72, and 120 hours. Each condition was plated by diluting 1 ml of growth material into 9 ml of MLB diluent broth. […] This mixture was serial diluted down to 10^−7 with 1 ml placed in triplicate in a sterile petri dish at each dilution point. 20 mls of TSA was added to each dilution, swirled and allowed to solidify. All dilutions were placed in a 35° C. incubator for 24 to 72 hours. Bacterial colonies on each plate were counted and the average taken then changed into log format. Any cfu/ml observed greater than 3.3×10^5 (log=5.5) were recorded as >3.3×10^5.
The tube was then taken out of the experiment and tested for ATCC strain 43300 Staphylococcus growth. The tube was spun down at 5000 rpm for 10 minutes. The supernatant was then decanted into 90 mls of Mueller-Hinton broth with 6 μg/ml oxacillin. This is for enrichment and the recovery of any MRSA cells that may be present whether healthy or stressed. The pellet had 10 mls Mueller-Hinton broth with 6 μg/ml oxacillin added to it to recover any cells that may be present. Both vessels were incubated at 35° C. for 48 hours followed by plating every 24 hours. Each vessel was plated at 10 dilutions to obtain a 1 cfu detection limit.

For COc1cccc(OC)c1C(=O)N[C@@H]1C(=O)N2[C@@H]1SC(C)(C)[C@@H]2C(=O)O [methicillin, reference compound], the MIC [1] is given as 6 µg/mL (≈ 15.8 µM), the “survival (cfu/ml)” value ([2]; 12 μg/ml methicillin (re-added every 24 hours) + MSM (% in label), inoculum 1.49×10^5/ml) is given as “TNTC” and the “survival (cfu/ml)” value ([2]; 30 μg/ml methicillin + MSM (% in label)) is given as “TNTC”. The “survival (cfu/ml)” value ([2]; 60 μg/ml methicillin + MSM (% in label)) was “TNTC” and the “decrease in colony forming units from the initial inoculums value” ([2]; methicillin alone, 12 μg/ml, 30 μg/ml and 60 μg/ml) was “no significant decrease in colony forming units”.
For Cc1onc(-c2ccccc2)c1C(=O)N[C@@H]1C(=O)N2[C@@H]1SC(C)(C)[C@@H]2C(=O)O [oxacillin, reference compound], the MIC [1] is given as 6 µg/mL (≈ 14.9 µM), the “survival (cfu/ml)” value ([3]; 12 μg/ml oxacillin (re-added every 24 hours) + MSM (% in label), 24 hours, three columns = triplicate platings, inoculum 3.3×10^5/ml) is given as >3.3 × 10^5 cfu/ml and the “survival, Average Log” value ([3]; 12 μg/ml oxacillin + MSM (% in label), 24 hours) is given as 5.5 Log. For the same compound, the “survival, Average Log” value ([3]; 12 μg/ml oxacillin + MSM (% in label), 48 hours) was 5.5 Log, the “survival (cfu/ml)” value ([3]; 12 μg/ml oxacillin + MSM (% in label), 48 hours, triplicate platings) was >3.3 × 10^5 cfu/ml and the “survival, Average Log” value ([3]; 12 μg/ml oxacillin + MSM (% in label), 72 hours) was 5.5 Log. For the same compound, the “survival (cfu/ml)” value ([3]; 12 μg/ml oxacillin + MSM (% in label), 72 hours, triplicate platings) was >3.3 × 10^5 cfu/ml, the “survival, Average Log” value ([3]; 12 μg/ml oxacillin + MSM (% in label), 96 hours) was 5.5 Log and the “survival (cfu/ml)” value ([3]; 12 μg/ml oxacillin + MSM (% in label), 96 hours, triplicate platings) was >3.3 × 10^5 cfu/ml. For the same compound, the “survival, Average Log” value ([3]; 12 μg/ml oxacillin + MSM (% in label), 120 hours) was 5.5 Log, the “survival (cfu/ml)” value ([3]; 12 μg/ml oxacillin + MSM (% in label), 120 hours, triplicate platings) was >3.3 × 10^5 cfu/ml and the “survival, Average Log” value ([3]; 30 μg/ml oxacillin + MSM (% in label), 24 hours) was 5.5 Log. For the same compound, the “survival (cfu/ml)” value ([3]; 30 μg/ml oxacillin + MSM (% in label), 24 hours, triplicate platings) was >3.3 × 10^5 cfu/ml, the “survival, Average Log” value ([3]; 30 μg/ml oxacillin + MSM (% in label), 48 hours) was 5.5 Log and the “survival (cfu/ml)” value ([3]; 30 μg/ml oxacillin + MSM (% in label), 48 hours, triplicate platings) was >3.3 × 10^5 cfu/ml. For the same compound, the “survival, Average Log” value ([3]; 30 μg/ml oxacillin + MSM (% in label), 72 hours) was 5.5 Log, the “survival (cfu/ml)” value ([3]; 30 μg/ml oxacillin + MSM (% in label), 72 hours, triplicate platings) was >3.3 × 10^5 cfu/ml and the “survival, Average Log” value ([3]; 30 μg/ml oxacillin + MSM (% in label), 96 hours) was 5.5 Log. For the same compound, the “survival (cfu/ml)” value ([3]; 30 μg/ml oxacillin + MSM (% in label), 96 hours, triplicate platings) was >3.3 × 10^5 cfu/ml, the “survival, Average Log” value ([3]; 30 μg/ml oxacillin + MSM (% in label), 120 hours) was 5.5 Log and the “survival (cfu/ml)” value ([3]; 30 μg/ml oxacillin + MSM (% in label), 120 hours, triplicate platings) was >3.3 × 10^5 cfu/ml. The “survival, Average Log” value ([3]; 60 μg/ml oxacillin + MSM (% in label), 24 hours) was 5.5 Log, the “survival (cfu/ml)” value ([3]; 60 μg/ml oxacillin + MSM (% in label), 24 hours, triplicate platings) was >3.3 × 10^5 cfu/ml and the “survival, Average Log” value ([3]; 60 μg/ml oxacillin + MSM (% in label), 48 hours) was 5.5 Log. For the same compound, the “survival (cfu/ml)” value ([3]; 60 μg/ml oxacillin + MSM (% in label), 48 hours, triplicate platings) was >3.3 × 10^5 cfu/ml, the “survival, Average Log” value ([3]; 60 μg/ml oxacillin + MSM (% in label), 72 hours) was 5.5 Log and the “survival (cfu/ml)” value ([3]; 60 μg/ml oxacillin + MSM (% in label), 72 hours, triplicate platings) was >3.3 × 10^5 cfu/ml. For the same compound, the “survival, Average Log” value ([3]; 60 μg/ml oxacillin + MSM (% in label), 96 hours) was 5.5 Log, the “survival (cfu/ml)” value ([3]; 60 μg/ml oxacillin + MSM (% in label), 96 hours, triplicate platings) was >3.3 × 10^5 cfu/ml and the “survival, Average Log” value ([3]; 60 μg/ml oxacillin + MSM (% in label), 120 hours) was 5.5 Log. The “survival (cfu/ml)” value ([3]; 60 μg/ml oxacillin + MSM (% in label), 120 hours, triplicate platings) was >3.3 × 10^5 cfu/ml and the “decrease in colony forming units from the initial inoculums value” ([3]; oxacillin alone, 12 μg/ml, 30 μg/ml and 60 μg/ml) was “no significant decrease in colony forming units”.
